Data published in US8821908B2, “Mold-resistant construction materials” (Henkel AG & Co. KGaA, priority 2004, dated 2014).

Legend:
Type in all cases: cell-based
[1] = system: test fungi envisaged in DIN EN ISO 846 or Aspergillus niger (ATCC 6275) as sole test organism; experiment: Fungal resistance of cured silicone joint sealant films, test along the lines of DIN EN ISO846 after QUV aging (infestation index); parameters: key to Infestation index: sum of weekly growth ratings (0 = no growth to 5 = fully overgrown)
Protocol: Cured silicone films (approximately 80×60×5 mm) are sprayed alternately for 15 minutes each with a spray solution (2% strength aqueous Texapon NSO solution containing 0.5% Dehydran 1513 defoamer), then irradiated with UV light for 15 minutes, in a QUV accelerated weathering instrument (e.g. QUV-spray model). Per week, the test specimens are exposed to 198 spraying units and 198 UV units. After 4 (792 shower cycles), 8 (1584 shower cycles), and 12 weeks (2376 shower cycles), test specimens are taken for microbiological examination. An unweathered sample is likewise investigated microbiologically.
The fungal resistance of cured joint-sealing compounds is assessed in a method based on DIN EN ISO846: “Determination of the action of microorganisms on plastics (ISO 846:1997 German version EN ISO 846: 1997); (amended).
Test specimens of cured joint-sealing compounds are applied planarly to an agar surface. A fungal suspension is caused to act on the test specimens and the surrounding agar surface. After incubation, an assessment is made of the growth on and around the test specimens.
Test conditions: The following important amendments and additions to the DIN EN ISO 846 are carried out: • (1) The test specimens are tested to DIN EN ISO 846 without pretreatment. Additionally, test specimens are also assessed in the test after pretreatment. This pretreatment (leaching) may take place, for example, by incubation for a number of weeks in a flow-traversed immersion bath with water or by accommodating suitable test specimens in a QUV; • (2) The fungal spore suspension is incubated under relatively harsh, realistic conditions with increased ambient air humidity (approximately 85% relative humidity) in a humid chamber; • (3) The test specimens are incubated on ‘complete nutrient medium’ (cf. DIN EN ISO 846 4.2.1.2 method B), but with ‘wort agar’; • (4) As test organisms use is made either of the test fungi envisaged in DIN EN ISO 846: • Aspergillus niger ATCC 6275 • Penicillium funiculosum ATCC 36839 • Paecilomyces variotii ATCC 18502 • Gliocladium virens ATCC 9645 • Chaetomium globosum ATCC 6205 • or, alternatively, the strain Aspergillus niger (ATCC 6275) as sole test organism.
Evaluation of the growth on the test elements: • 0=no growth visible under microscope viewing • 1=no growth visible with naked eye, but growth clearly visible under the microscope • 2=growth visible with naked eye, up to 25% of the sample surface overgrown • 3=growth visible with naked eye, up to 50% of the sample surface overgrown • 4=considerable growth, over 50% of the sample surface overgrown • 5=severe growth, entire sample surface overgrown
All in all, the specimens are incubated for 18 weeks and inoculated again after 4 and 8 weeks in each case. The individual evaluations are added over this period and reported collectively as the infestation index.
A commercially customary silicone joint sealant (e.g., Dow Corning 3390) is admixed with the actives described and stirred with a stirrer until homogeneity is achieved. Thereafter, films of the sealant are produced and tested as described above.

[2] = system: Aspergillus niger (DSM1988); experiment: Sporulation inhibition on wort agar plates
Protocol: The surface of wort agar plates was contaminated with 100 μl in each case of a microbial suspension (10^3 CFU/ml) of Aspergillus niger (DSM1988). Added beforehand to the agar plates were different amounts of active (solutions in ethanol, for final concentrations see table). The plates were incubated at 25° C. for 3 days. Spore formation was assessed visually and the sporulation rate was ascertained in [%]. A growth inhibition or microbicidal effect only occurred for a concentration of 0.05% by weight OPP.

Candida albicans = experiment: Hyphal formation and cell growth of Candida albicans
Excerpt: Fucoidin, also known under the name fucosidan or fucoidan, is a polysaccharide from brown algae (Fucus vesiculosa, bladder wrack) which consists principally of sulfated L-fucose in 1,2-α-glycosidic linkage.

[3] = Amount of active added 500 ppm in silicone joint sealant, evaluations (0-5) added over 18 weeks
[4] = Amount of active added 1000 ppm in silicone joint sealant, evaluations added over 18 weeks

Compound: CC(C)(C)C(O)(CCc1ccc(Cl)cc1)Cn1cncn1 (stereo not shown) [Tebuconazole, a-(2-(4-chlorophenyl)ethyl)-a-(1,1-dimethylethyl)-1H-1,2,4-triazole-1-ethanol]
- Infestation index [1, 3]: 60
- Infestation index [1, 4]: 57
- Infestation index ([1]; Amount of active added 2500 ppm in silicone joint sealant, evaluations added over 18 weeks): 37
- Infestation index ([1]; Amount of active added 5000 ppm in silicone joint sealant, evaluations added over 18 weeks): 20
- Infestation index ([1]; Amount of active added 10000 ppm in silicone joint sealant, evaluations added over 18 weeks): 12
- dependence of mold prevention on concentration ([1]; in sealants, not observed with fungicides typically used at present): virtually linear dependence with increasing concentration

Compound: CCCCCCCCn1sc(Cl)c(Cl)c1=O [DCOIT]
- Infestation index [1, 3]: 77
- Infestation index [1, 4]: 81
- Infestation index ([1]; Amount of active added 2000 ppm in silicone joint sealant, evaluations added over 18 weeks): 78

Compound: ortho-phenylphenol-silicic ester
- Sporulation [%] ([2]; Concentration of OPP-silicic ester 0.00001 %, 25° C., 3 days): 95%
- Sporulation [%] ([2]; Concentration of OPP-silicic ester 0.00005 %, 25° C., 3 days): 95%
- Sporulation [%] ([2]; Concentration of OPP-silicic ester 0.0001 %, 25° C., 3 days): 95%
- Sporulation [%] ([2]; Concentration of OPP-silicic ester 0.0005 %, 25° C., 3 days): 50%
- Sporulation [%] ([2]; Concentration of OPP-silicic ester 0.001 %, 25° C., 3 days): 25%
- Sporulation [%] ([2]; Concentration of OPP-silicic ester 0.005 %, 25° C., 3 days): 0%
- Sporulation [%] ([2]; Concentration of OPP-silicic ester 0.01 %, 25° C., 3 days): 0%
- use concentration at which spore formation was suppressed completely ([2]; wort agar, 25° C., 3 days): 0.005 % by weight

Compound: Fucoidin
- cell growth (Candida albicans): unaffected
- hyphal formation (Candida albicans): significantly reduced

Compound: Oc1ccccc1-c1ccccc1 [ortho-phenylphenol]
- Sporulation [%] ([2]; Concentration of OPP 0.00001 %, 25° C., 3 days, assessed visually): 95%
- Sporulation [%] ([2]; Concentration of OPP 0.00005 %, 25° C., 3 days): 95%
- Sporulation [%] ([2]; Concentration of OPP 0.0001 %, 25° C., 3 days): 95%
- Sporulation [%] ([2]; Concentration of OPP 0.0005 %, 25° C., 3 days): 50%
- Sporulation [%] ([2]; Concentration of OPP 0.001 %, 25° C., 3 days): 25%
- Sporulation [%] ([2]; Concentration of OPP 0.005 %, 25° C., 3 days): 0%
- concentration of complete suppression of spore formation relative to growth-inhibiting concentration ([2]; without any growth inhibition activity occurring): fifty times lower
- concentration at which a growth inhibition or microbicidal effect occurred ([2]; wort agar, 25° C., 3 days): 0.05 % by weight
- use concentration at which spore formation was suppressed completely ([2]; wort agar, 25° C., 3 days): 0.001 % by weight
